This is an account of results in US20230220029A1, “ANTIVIRAL […] AND USES THEREOF” (VIRGINIA COMMONWEALTH UNIVERSITY, priority 2020, published 2023).

A short description of data set [1]: Peptide stability by repeating the sVNT ELISA two months apart with the same solubilized peptide. It is filed as physicochemical. The following applies: ELISA tests two months apart with the same solubilized peptide. The source says: FIGS. 4A-B. Surrogate virus test results for peptide 122023-C. FIG. 4A are results obtained in a first experiment and FIG. 4B are results obtained in a second experiment two months later using the same solubilized peptide.

Data set [2] deals with HRP-conjugated-S-protein-RBD binding to hACE2 (Severe acute respiratory syndrome coronavirus 2, UniProt P0DTC2). In words: biochemical. The note with it: sVNT ELISA, dose-dependent, FIG. 4. Also on record: species or system SARS-CoV-2. Background: In an ELISA, binding on a coated surface is turned into a signal by an enzyme label.
Data set [3] deals with SARS-CoV-2, USA-WA1/2020. The following applies: USA-WA1/2020, 1 h, 200 μM.
In data set [4] the target is HRP-conjugated-S-protein-RBD (SARS-CoV-2), P0DTC2.

Where a SMILES comes first, the peptide text is derived from it.

Take `CC(C)C[C@H](NC(=O)[C@H](CC(=O)O)NC(=O)[C@H](CCC(=O)O)NC(=O)[C@H](CC(C)C)NC(=O)[C@H](CCC(N)=O)NC(=O)[C@H](CCC(=O)O)NC(=O)[C@H](CC(N)=O)NC(=O)[C@H](Cc1ccccc1)NC(=O)[C@H](CCCNC(=N)N)NC(=O)[C@H](CCC(=O)O)NC(=O)[C@H](CC(C)C)NC(=O)[C@H](Cc1ccccc1)NC(=O)[C@H](Cc1ccc(O)cc1)NC(=O)[C@H](CCCCN)NC(=O)[C@H](CC(C)C)NC(=O)[C@H](CCC(N)=O)NC(=O)[C@H](CCC(N)=O)NC(=O)[C@@H](N)CCC(=O)O)C(=O)N[C@@H](Cc1ccccc1)C(=O)N[C@@H](Cc1ccc(O)cc1)C(=O)N[C@@H](CCC(N)=O)C(=O)N[C@@H](CO)C(=O)N[C@@H](CO)C(=O)O` [Peptide 122023-C] (H-EQQLKYFLERFNEQLEDLFYQSS-OH): the peptide stability result in data set [1] was “Excellent peptide stability”. Also, in data set [2], the IC50 (usually the concentration at which inhibition is half-maximal) is roughly 33.8 nM.

As for `CC(C)C[C@H](NC(=O)[C@H](CCC(N)=O)NC(=O)[C@H](CCC(=O)O)NC(=O)[C@H](C)NC(=O)[C@H](Cc1ccccc1)NC(=O)[C@H](CCCNC(=N)N)NC(=O)[C@H](CCC(=O)O)NC(=O)[C@H](CC(C)C)NC(=O)[C@H](Cc1ccccc1)NC(=O)[C@H](Cc1ccc(O)cc1)NC(=O)[C@H](CCCCN)NC(=O)[C@H](CC(C)C)NC(=O)[C@H](CCC(N)=O)NC(=O)[C@H](CCC(N)=O)NC(=O)[C@@H](N)CCC(=O)O)C(=O)N[C@@H](CCC(=O)O)C(=O)N[C@@H](CCC(N)=O)C(=O)N[C@@H](CC(C)C)C(=O)N[C@@H](Cc1ccccc1)C(=O)N[C@@H](Cc1ccc(O)cc1)C(=O)N[C@@H](CCC(N)=O)C(=O)N[C@@H](CO)C(=O)N[C@@H](CO)C(=O)O` [Peptide 122023-A] (H-EQQLKYFLERFAEQLEQLFYQSS-OH; N-terminus and C-terminus assumed), the “inhibition at the highest concentration studied” value in data set [3] is given as “up to 95%”.

Turning to EQQLKYFLERFNEQLEDLFYQSS (modifications not checked) [peptide 122023-C], the IC50 in data set [4] was 0.1 µg/mL.
